Among the data in patent US11274082B2, “Tead inhibitors and uses thereof” (Ikena Oncology, Inc., priority 2019, dated 2022) are AUC(0-t), Cmax and EC50 values, retold here.

Where only a bound is given, the exact number is not on record here.

Broadly, the AUC(0-t) is exposure summed from dosing to a finite time, without extrapolation to infinity. The Cmax is the peak of the concentration-time curve. Usually EC50 stands for the midpoint of the concentration-response curve.

Series [1] can be described thus: Mouse pharmacokinetics study. In kind it is in vivo. The conditions noted are these: BALB/c mice, 10 mg/kg by oral gavage in 5% DMS/95% PEG400, plasma. The method, then:
Formulated compounds were administered intravenously or orally via gavage to BALB/c mice. Typically, at 0.167, 0.5, 1, 2, 4, 6, 12, and 24 hours post-dose, blood was collected and processed to plasma by centrifugation and stored at −80° C. until analysis. Internal standard was added to each sample prior to protein precipitation with acetonitrile or TCA. The precipitates were filtered through a filter plate and the samples were analyzed by LC/MS/MS. A standard curve was prepared in plasma from typically from 1.0 ng/mL to 3000 ng/mL and processed in the same manner as the samples. Sample analysis was typically performed on a suitable LC/MS/MS system fitted with an analytical UPLC column and compounds eluted from the analytical column with a gradient from 30-95% 0.1% formic acid (v/v) in ACN: 0.1% formic acid (v/v) in water. Mass spectrometric detection of test compound and the internal standard was performed by MRM in positive mode. The pharmacokinetics of each compound were analyzed by Phoenix WinNonlin software (Pharsight, St. Louis, Mo.) via noncompartmental analysis.

A further series relates to H226. Put plainly: Anti-proliferation assay in H226 cells. In kind it is cell-based. The conditions noted are these: Homo sapiens, NCI-H226; H226 cells; read-out: H226 EC50. The method, then: (§1) Certain compounds were tested in TEAD reporter assay, and in H226 and H28. A: EC50<0.1 uM; B: 0.1 uM≤EC50≤0.5 uM; C: EC50>0.5 uM.
Individual cell lines were grown in medium according to supplier instructions and seeded into 96-well plates at a density that ensured logarithmic growth over 72 hours. TEAD inhibitor compounds were administered to cells at a top concentration of 10 μm and subsequently a 10 point 3-fold serial dilution was conducted. After 72 hours, proliferation was quantified using Cell TITERGLO™ (Promega, Inc.) and compared to vehicle control. IC50 and EC50 values were generated using XLFit curve fitting software.

The subject of a further series is TEAD. Briefly: TEAD reporter assay (Hippo Pathway TEAD Reporter - MCF7 cell line, luciferase). The conditions noted are these: Homo sapiens; TEAD Reporter - MCF7 cells; read-out: TEAD Reporter Assay EC50. In kind it is cell-based.
Text: TEAD inhibition can be assayed using Hippo Pathway TEAD Reporter—MCF7 Cell Line (BPS Bioscience, Catalog #: 60618).
The TEAD Reporter—MCF7 cell line contains the firefly luciferase gene under the control of TEAD responsive elements stably integrated into the human breast cancer cell line, MCF7. Inside the cells, basal unphosphorylated YAP/TAZ remains in the nucleus and induces the constitutive expression of luciferase reporter. The cell line is validated for the inhibition of the expression of luciferase reporter by the activators of the Hippo pathway.
• 1) Harvest TEAD Reporter—MCF7 cells from culture in growth medium and seed cells at a density of 35,000 cells per well into white clear-bottom 96-well microplate in 45 μl of assay medium. • 2) Incubate cells at 37° C. in a CO2 incubator for overnight. • 3) Dilute the activators (H2O2 or okadaic acid) stock in assay medium. Add 5 μl of diluted activators to the wells. The final concentration of DMSO in assay medium is 0.1%. • 4) Add 5 μl of assay medium with same concentration of DMSO without activator to control wells. • 5) Add 50 μl of assay medium with DMSO to cell-free control wells (for determining background luminescence). • 6) Set up each treatment in at least triplicate. • 7) Incubate cells at 37° C. in a CO2 incubator for 5-6 hours. • 8) Perform luciferase assay using the ONE-Step™ Luciferase Assay System following the protocol provided: Add 100 μl of ONE-Step™ Luciferase reagent per well and rock at room temperature for ˜15 minutes. Measure luminescence using a luminometer. • 9) Data Analysis: Obtain the background-subtracted luminescence by subtracting the average background luminescence (cell-free control wells) from the luminescence reading of all wells.
as §1
In general terms: A reporter such as luciferase makes a cellular process visible.

In series [1], `CNS(=O)(=O)c1ccc(N[C@H](C)c2ccccc2)c(-c2cn(C)cn2)c1` [I-30, N-Methyl-3-(1-methylimidazol-4-yl)-4-[[(1R)-1-phenylethyl]amino]benzenesulfonamide] gave an AUC(0-t) of 887 ng·h/mL. This molecule displayed a Cmax in series [1] of 882 ng/mL. Moreover, the EC50 with H226 and with TEAD was less than 100 nM each time.
In series [1], `CNS(=O)(=O)c1ccc(NCc2cccc(C(F)(F)F)c2)c(-c2cn(C)cn2)c1` [I-31, N-Methyl-3-(1-methyl-1H-imidazol-4-yl)-4-((3-(trifluoromethyl)benzyl)amino)benzenesulfonamide] displayed an AUC(0-t) of 2520 ng·h/mL and a Cmax of 774 ng/mL. The EC50 in the series on H226 is less than 100 nM. Further, the EC50 in the series on TEAD is less than 100 nM.
Turning to `CNS(=O)(=O)c1ccc(NCc2ccc(C(F)(F)F)cc2)c(-c2cn(C)cn2)c1` [I-32, N-Methyl-3-(1-methyl-1H-imidazol-4-yl)-4-((4-(trifluoromethyl)benzyl)amino)benzenesulfonamide], in series [1], the AUC(0-t) stood at 4580 ng·h/mL and the peak level (Cmax) was 1090 ng/mL. In addition, in the series with H226, the EC50 was less than 100 nM. In the series on TEAD, the half-maximal effective concentration (EC50) is less than 100 nM.
For `CNS(=O)(=O)c1ccc(Nc2cc(C(F)(F)F)ccn2)c(-c2cn(C)cn2)c1` [I-33, N-Methyl-3-(1-methylimidazol-4-yl)-4-[[4-(trifluoromethyl)-2-pyridyl]amino]benzenesulfonamide], the AUC(0-t) in series [1] was 731 ng·h/mL. The concentration in series [1] peaked (Cmax) at 420 ng/mL. Also, the EC50 in the series with H226 and in the series with TEAD was less than 100 nM throughout.
On to `CNS(=O)(=O)c1ccc(NCc2ccc(C(F)(F)F)cn2)c(-c2cn(C)cn2)c1` [I-70, N-Methyl-3-(1-methylimidazol-4-yl)-4-[[5-(trifluoromethyl)-2-pyridyl]methylamino]benzenesulfonamide], for which the EC50 in the series on H226 was less than 100 nM; in the series on TEAD it was 100 to 500 nM.
The matching figures for `CNS(=O)(=O)c1ccc(Nc2ccc(C(F)(F)F)cn2)c(-c2cn(Cc3ccccc3)cn2)c1` [I-71, 3-(1-Benzylimidazol-4-yl)-N-methyl-4-[[5-(trifluoromethyl)-2-pyridyl]amino]benzenesulfonamide]: 100 to 500 nM and 100 to 500 nM.
In the same order, the values of `CNS(=O)(=O)c1ccc(NCc2ccc3scnc3c2)c(-c2cn(C)cn2)c1` [I-72, 4-(1,3-Benzothiazol-5-ylmethylamino)-N-methyl-3-(1-methylimidazol-4-yl)benzenesulfonamide] are 100 to 500 nM and less than 100 nM.
In the same order, the values of `CNS(=O)(=O)c1ccc(NCc2ccc3ncsc3c2)c(-c2cn(C)cn2)c1` [I-73, 4-(1,3-Benzothiazol-6-ylmethylamino)-N-methyl-3-(1-methylimidazol-4-yl)benzenesulfonamide] are 100 to 500 nM and more than 500 nM.
Turning to `CNS(=O)(=O)c1ccc(NCc2ccccc2C(F)(F)F)c(-c2cn(C)cn2)c1` [I-74, N-Methyl-3-(1-methylimidazol-4-yl)-4-[[2-(trifluoromethyl)phenyl]methylamino]benzenesulfonamide], the EC50 with H226 and with TEAD was less than 100 nM each time.
As for `CNS(=O)(=O)c1ccc(Nc2ccc(C(F)(F)F)nc2)c(-c2cn(C)cn2)c1` [I-75, N-Methyl-3-(1-methylimidazol-4-yl)-4-[[6-(trifluoromethyl)-3-pyridyl]amino]benzenesulfonamide], the 50% effective concentration (EC50) in the series with H226 and with TEAD was less than 100 nM each time.
Consider `CNS(=O)(=O)c1ccc(NCc2ccc(C(F)(F)F)nc2)c(-c2cn(C)cn2)c1` [I-76, N-Methyl-3-(1-methyl-1H-imidazol-4-yl)-4-(((6-(trifluoromethyl)pyridin-3-yl)methyl)amino)benzenesulfonamide], for which the concentration giving a half-maximal response (EC50) in the series with H226 is 100 to 500 nM; in the series on TEAD it was more than 500 nM.
With `CNS(=O)(=O)c1ccc(Nc2ccc(C(F)(F)F)nn2)c(-c2cn(C)cn2)c1` [I-77, N-Methyl-3-(1-methylimidazol-4-yl)-4-[[6-(trifluoromethyl)pyridazin-3-yl]amino]benzenesulfonamide], the values for the concentration for a half-maximal effect (EC50) with H226 and with TEAD were 100 to 500 nM and more than 500 nM, respectively.
Consider `CNS(=O)(=O)c1ccc(Nc2ncc(C(F)(F)F)cn2)c(-c2cn(C)cn2)c1` [I-78, N-Methyl-3-(1-methylimidazol-4-yl)-4-[[5-(trifluoromethyl)pyrimidin-2-yl]amino]benzenesulfonamide], for which the EC50 with H226 and in the series on TEAD was less than 100 nM in each case.
For the molecule `CNS(=O)(=O)c1ccc(Nc2ccc(C3CC3)cn2)c(-c2cn(C)cn2)c1` [I-79, 4-[(5-Cyclopropyl-2-pyridyl)amino]-N-methyl-3-(1-methylimidazol-4-yl)benzenesulfonamide], the EC50 with H226 is less than 100 nM; in the series with TEAD, 100 to 500 nM.
As for `CNS(=O)(=O)c1ccc(Nc2ccc(C(C)(C)C)cn2)c(-c2cn(C)cn2)c1` [I-80, 4-[(5-tert-Butyl-2-pyridyl)amino]-N-methyl-3-(1-methylimidazol-4-yl)benzenesulfonamide], the concentration giving a half-maximal response (EC50) with H226 and with TEAD was less than 100 nM throughout.
With `CNS(=O)(=O)c1ccc(Nc2ccc(C(F)(F)F)cn2)c(-c2cn(Cc3ccccc3F)cn2)c1` [I-81, 3-[1-[(2-Fluorophenyl)methyl]imidazol-4-yl]-N-methyl-4-[[5-(trifluoromethyl)-2-pyridyl]amino]benzenesulfonamide], the EC50 with H226 and in the series on TEAD was less than 100 nM throughout.
Regarding `CNS(=O)(=O)c1ccc(Nc2ccc(C(F)(F)F)cc2)c(-c2cn(C)cn2)c1` [I-82, N-Methyl-3-(1-methyl-1H-imidazol-4-yl)-4-((4-(trifluoromethyl)phenyl)amino)benzenesulfonamide], the EC50 in the series on H226 and in the series on TEAD was less than 100 nM each time.
As to `CNS(=O)(=O)c1ccc(N[C@@H](C)c2cccc(C(F)(F)F)c2)c(-c2cn(C)cn2)c1` [I-83, N-Methyl-3-(1-methylimidazol-4-yl)-4-[[(1S)-1-[3-(trifluoromethyl)phenyl]ethyl]amino]benzenesulfonamide], the concentration for a half-maximal effect (EC50) was less than 100 nM with H226 and 100 to 500 nM with TEAD.
As to `CNS(=O)(=O)c1ccc(Nc2ccc(OC(F)(F)F)cn2)c(-c2cn(C)cn2)c1` [I-84, N-Methyl-3-(1-methylimidazol-4-yl)-4-[[5-(trifluoromethoxy)-2-pyridyl]amino]benzenesulfonamide], the EC50 with H226 and in the series on TEAD was less than 100 nM in each case.
As to `CNS(=O)(=O)c1ccc(Nc2ccc(C(F)(F)F)cn2)c(-c2cn(C(C)C)cn2)c1` [I-85, 3-(1-isopropylimidazol-4-yl)-N-methyl-4-[[5-(trifluoromethyl)-2-pyridyl]amino]benzenesulfonamide], the EC50 in the series with H226 and with TEAD was less than 100 nM each time.
Turning to `CNS(=O)(=O)c1ccc(Nc2ccc(C#N)cn2)c(-c2cn(C)cn2)c1` [I-86, 4-[(5-Cyano-2-pyridyl)amino]-N-methyl-3-(1-methylimidazol-4-yl)benzenesulfonamide], the results for the EC50 with H226 and in the series with TEAD were 100 to 500 nM and more than 500 nM, respectively.
Consider `CNS(=O)(=O)c1ccc(Nc2cccc(C(F)(F)F)c2)c(-c2cn(C)cn2)c1` [P-12], for which, in series [1], the AUC(0-t) stood at 2330 ng·h/mL and the Cmax was 558 ng/mL.
In the same order, the values of `CNS(=O)(=O)c1ccc(Nc2cccc(C(F)(F)F)c2)c(-c2nnn(C)n2)c1` [P-14] are 622 ng·h/mL and 210 ng/mL.
